Reference: the supplement of paper PMC9151546
Where a name gives a salt, the structure may show the parent alone. ± gives the standard deviation of the averaged measurements.

Key:
CHO-K1 [1] = test: benchmark concentration for 60% increase in hypodiploid frequency (BMC60); higher = less potent aneugen
Procedure: (§1)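 Benchmark concentration modelling (PROAST, Hill/exponential model families) of the 19-concentration flow-cytometric micronucleus assay in CHO-K1 cells, with and without rat liver S9. Only non-cytotoxic and adequate (relative survival >=40%) concentrations were used. BMR was a 30% increase in %MN (BMC30) or a 60% increase in %hypodiploid (BMC60) over control.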

CHO-K1 [2] = test: benchmark concentration for 30% increase in micronucleus frequency (BMC30); higher = less potent clastogen
Procedure: as §1

[3] = S9 metabolic activation: without S9
[4] = S9 metabolic activation: with S9

| SMILES | benchmark concentration (CHO-K1 [1]; [3]) | benchmark concentration (CHO-K1 [2]; [3]) | benchmark concentration (CHO-K1 [1]; [4]) | benchmark concentration (CHO-K1 [2]; [4]) |
| --- | --- | --- | --- | --- |
| C[C@]12CC[C@@H]3c4ccc(O)cc4CC[C@H]3[C@@H]1CC[C@@H]2O [17beta-Estradiol] | 9.9 µM | 8.1 µM | – | – |
| c1cc2c3c(cccc3c1)CC2 [Acenaphthene] | – | 78 µM | 89 µM | 59 µM |
| CCCCc1oc2ccccc2c1C(=O)c1cc(I)c(OCCN(CC)CC)c(I)c1 [Amiodarone hydrochloride] | – | – | 11 µM | 16 µM |
| O=C1c2c(O)cccc2Cc2cccc(O)c21 [Anthralin] | 16 µM | 110 µM | – | – |
| Cn1cnc([N+](=O)[O-])c1Sc1ncnc2[nH]cnc12 [Azathioprine] | 18 µM | 83 µM | 170 µM | – |
| c1ccc(/N=N/c2ccccc2)cc1 [Azobenzene] | 87 µM | – | 37 µM | 32 µM |
| Nc1ccc(-c2ccc(N)cc2)cc1 [Benzidine] | 18 µM | 18 µM | – | – |
| c1ccc2c(c1)-c1cccc3c1c-2cc1ccccc13 [Benzo(b)fluoranthene] | 93 µM | 130 µM | – | – |
| O=C(c1ccccc1)c1ccccc1 [Benzophenone] | 28 µM | 59 µM | – | – |
| OCc1ccccc1 [Benzyl alcohol] | 93 µM | 43 µM | – | – |
| CC(C)(c1ccc(O)cc1)c1ccc(O)cc1 [Bisphenol A] | 48 µM | 71 µM | – | – |
| Oc1ccc2ccccc2c1N=Nc1ccccc1 [C.I. Solvent Yellow 14] | 11 µM | 23 µM | 91 µM | – |
| O=C1CCCCCN1 [Caprolactam] | 150 µM | 44 µM | – | – |
| O=C(O)C1C(C(=O)O)C2(Cl)C(Cl)=C(Cl)C1(Cl)C2(Cl)Cl (centres undefined) [Chlorendic acid] | 97 µM | 110 µM | – | – |
| CCOP(=S)(OCC)Oc1nc(Cl)c(Cl)cc1Cl [Chlorpyrifos] | 69 µM | – | 42 µM | 29 µM |
| CC(C)(OO)c1ccccc1 [Cumene hydroperoxide] | 63 µM | 56 µM | – | – |
| NC1CCCCC1 [Cyclohexylamine] | 43 µM | 72 µM | – | – |
| Nc1ccn([C@@H]2O[C@H](CO)[C@@H](O)[C@@H]2O)c(=O)n1 [Cytarabine hydrochloride] | – | – | 27 µM | 5.9 µM |
| O=c1c(-c2ccc(O)cc2)coc2cc(O)ccc12 [Daidzein] | – | – | 47 µM | 14 µM |
| C=CCOC(=O)c1ccccc1C(=O)OCC=C [Diallyl phthalate] | 65 µM | – | – | 61 µM |
| N#CC(Br)Br [Dibromoacetonitrile] | 15 µM | 32 µM | – | – |
| O=C(O)C(Cl)Cl [Dichloroacetic acid] | 95 µM | 94 µM | – | – |

| SMILES | benchmark concentration (CHO-K1 [1]; [3]) | benchmark concentration (CHO-K1 [2]; [3]) | benchmark concentration (CHO-K1 [1]; [4]) | benchmark concentration (CHO-K1 [2]; [4]) |
| --- | --- | --- | --- | --- |
| COP(=O)(OC)OC=C(Cl)Cl [Dichlorvos] | 90 µM | 66 µM | – | – |
| ClC1=C(Cl)[C@]2(Cl)[C@@H]3[C@@H]4C[C@@H]([C@H]5O[C@@H]45)[C@@H]3[C@@]1(Cl)C2(Cl)Cl [Dieldrin] | 90 µM | 74 µM | – | – |
| CCOC(=O)c1ccccc1C(=O)OCC [Diethyl phthalate] | 99 µM | 100 µM | – | – |
| CC(=O)OC1CC(C)OC(C)O1 (centres undefined) [Dimethoxane] | – | 30 µM | 59 µM | 86 µM |
| C[C@]12CC[C@@H]3c4ccc(O)cc4CC[C@H]3[C@@H]1CCC2=O [Estrone] | 5.3 µM | < 4.5 µM | – | – |
| O=C(O)C1=NN(c2ccc(S(=O)(=O)O)cc2)C(=O)C1N=Nc1ccc(S(=O)(=O)O)cc1 (centres undefined) [FD&C Yellow 5] | 47 µM | 25 µM | – | 15 µM |
| CN(C)c1ccc(N=NS(=O)(=O)O)cc1 [Fenaminosulf] | 41 µM | 27 µM | – | – |
| Nc1nc(=O)c2nc(CNc3ccc(C(=O)N[C@@H](CCC(=O)O)C(=O)O)cc3)cnc2[nH]1 [Folic acid] | 110 µM | – | – | 57 µM |
| CN(C)c1ccc(C(=C2C=CC(=[N+](C)C)C=C2)c2ccc(N(C)C)cc2)cc1 [Gentian Violet] | – | – | 0.23 µM | 0.91 µM |
| ClC1=C(Cl)C2(Cl)C3C4OC4C(Cl)C3C1(Cl)C2(Cl)Cl (centres undefined) [Heptachlor epoxide] | 28 µM | 25 µM | – | 45 µM |
| ClC1=C(Cl)C2(Cl)C3C(Cl)C=CC3C1(Cl)C2(Cl)Cl (centres undefined) [Heptachlor] | 20 µM | 64 µM | 19 µM | 11 µM |
| NS(=O)(=O)c1cc2c(cc1Cl)NCNS2(=O)=O [Hydrochlorothiazide] | 73 µM | – | – | 29 µM |
| Oc1ccc(O)cc1 [Hydroquinone] | – | – | 90 µM | 63 µM |
| NC(=O)NO [Hydroxyurea] | 29 µM | 19 µM | – | – |
| NNC(=O)c1ccncc1 [Isoniazid] | 51 µM | – | – | 21 µM |
| CN(Cc1cnc2nc(N)nc(N)c2n1)c1ccc(C(=O)N[C@@H](CCC(=O)O)C(=O)O)cc1 [Methotrexate] | 59 µM | 51 µM | – | – |
| COC(=O)c1ccccc1O [Methyl salicylate] | 67 µM | 15 µM | – | 58 µM |
| CN(C)c1ccc(C(=O)c2ccc(N(C)C)cc2)cc1 [Michlers ketone] | – | – | 22 µM | 27 µM |
| ClC1(Cl)C2(Cl)C3(Cl)C4(Cl)C(Cl)(Cl)C5(Cl)C3(Cl)C1(Cl)C5(Cl)C24Cl (centres undefined) [Mirex] | 28 µM | 36 µM | – | – |
| CCSC(=O)N1CCCCCC1 [Molinate] | 61.5 ± 3.5 µM | – | – | 41 µM |
| CN(C)C(=O)Nc1ccc(Cl)cc1 [Monuron] | 82 µM | 8.6 µM | – | – |
| C=CC(=O)NCNC(=O)C=C [N,N'-Methylenebisacrylamide] | 62 µM | 44 µM | – | – |

| SMILES | benchmark concentration (CHO-K1 [1]; [3]) | benchmark concentration (CHO-K1 [2]; [3]) | benchmark concentration (CHO-K1 [1]; [4]) | benchmark concentration (CHO-K1 [2]; [4]) |
| --- | --- | --- | --- | --- |
| CCNc1ccccc1 [N-Ethylaniline] | 35 µM | 77 µM | – | – |
| CCN(CC)N=O [N-Nitrosodiethylamine] | 31 µM | 21 µM | – | – |
| O=NN(c1ccccc1)c1ccccc1 [N-Nitrosodiphenylamine] | 25 µM | 72 µM | – | 120 µM |
| Nc1ccc(Nc2ccccc2)cc1 [N-Phenyl-1,4-benzenediamine] | < 4.5 µM | – | – | 87 µM |
| CC1(C)NC(=O)N(c2ccc([N+](=O)[O-])c(C(F)(F)F)c2)C1=O [Nilutamide] | 39 µM | 21 µM | – | – |
| O=C1CN(/N=C/c2ccc([N+](=O)[O-])o2)C(=O)N1 [Nitrofurantoin] | 31 µM | 55 µM | – | – |
| NC(=O)N/N=C/c1ccc([N+](=O)[O-])o1 [Nitrofurazone] | 68 µM | 24 µM | – | – |
| O=C(O)C(F)(F)C(F)(F)C(F)(F)C(F)(F)C(F)(F)C(F)(F)C(F)(F)C(F)(F)C(F)(F)F [PFDA] | 73 µM | – | – | 73 µM |
| CCCCC=O [Pentanal] | 140 µM | – | – | 60 µM |
| Oc1ccccc1 [Phenol] | 57 µM | 100 µM | – | – |
| c1ccc2c(c1)Nc1ccccc1S2 [Phenothiazine] | – | – | 25 µM | 17 µM |
| CCc1ccc(CCOc2ccc(CC3SC(=O)NC3=O)cc2)nc1 (centres undefined) [Pioglitazone hydrochloride] | 7.6 µM | < 4.5 µM | – | – |
| c1cc2ccc3cccc4ccc(c1)c2c34 [Pyrene] | 110 µM | – | – | 40 µM |
| C/C=C/C=C/C(=O)O [Sorbic acid] | 37 µM | 29 µM | – | – |
| c1ccc(C2CO2)cc1 (centres undefined) [Styrene oxide] | 19 µM | 96 µM | – | – |
| O=C(OC[C@H]1O[C@@H](OC(=O)c2cc(O)c(O)c(OC(=O)c3cc(O)c(O)c(O)c3)c2)[C@H](OC(=O)c2cc(O)c(O)c(OC(=O)c3cc(O)c(O)c(O)c3)c2)[C@@H](OC(=O)c2cc(O)c(O)c(OC(=O)c3cc(O)c(O)c(O)c3)c2)[C@@H]1OC(=O)c1cc(O)c(O)c(OC(=O)c2cc(O)c(O)c(O)c2)c1)c1cc(O)c(O)c(OC(=O)c2cc(O)c(O)c(O)c2)c1 [Tannic acid] | 0.84 µM | – | 1.3 µM | 0.9 µM |
| COC(=O)NC(=S)Nc1ccccc1NC(=S)NC(=O)OC [Thiophanate-methyl] | 20.5 ± 3.5 µM | 16.7 ± 4.2 µM | – | – |
| O=c1n(CC2CO2)c(=O)n(CC2CO2)c(=O)n1CC1CO1 (centres undefined) [Triglycidyl isocyanurate] | 25 µM | < 4.5 µM | 53 µM | < 4.5 µM |
| ClC(Cl)=C(c1ccc(Cl)cc1)c1ccc(Cl)cc1 [p,p'-DDE] | 16 µM | 29 µM | – | 51 µM |
| Cc1ccc(O)cc1 [p-Cresol] | 79 µM | 73 µM | – | – |
